This passage reports T/C results from PubChem BioAssay AID296 (DTP/NCI, 2004).

Values joined by “and” are separate entries in the source; they are usually repeats but may differ in a detail not shown here. Identical values can stand only once. Results filed as inconclusive are left out. Where a SMILES comes first, the peptide text is derived from it. Bridges are numbered along the chain shown (N, C = ends). Roman numbers before positions name the chains, in order. [ ]: non-standard residue; d: D form. The star is where a group is joined. Quinoxaline2carbonyl = O=C(c1cnc2ccccc2n1)*; NMeV = CN[CH](C(=O)O)C(C)C; NMeC = CN[CH](CS)C(=O)O

The test system of the test is MX-1 breast xenograft, nude mice, tumor weight T/C. Description: NCI In Vivo Anticancer Drug Screen. Data for tumor model Human Mammary Carcinoma MX-1 Xenograft (intrarenal inoculation) in NU/NU Swiss (nude) mice. As to conditions: endpoint: mean tumor weight change, higher = larger tumour. The gist of the method:
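Antitumour effect measured in vivo against vehicle controls, expressed as T/C.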
In general terms: Xenograft models place foreign cells or tissue in a host animal.

The mark [1] stands for this setting: dose: 1200.0 mg/kg/injection, schedule: Q04DX003 (sc), vehicle: Klucel (hydroxypropylcellulose) (HPC).
[2] abbreviates: dose: 2400.0 mg/kg/injection, schedule: Q04DX003 (sc), vehicle: Klucel (hydroxypropylcellulose) (HPC).
[3] abbreviates: dose: 300.0 mg/kg/injection, schedule: Q04DX003 (sc), vehicle: Klucel (hydroxypropylcellulose) (HPC).
Where [4] appears, read: dose: 300.0 mg/kg/injection, schedule: Q04DX003 (sc), vehicle: saline.
Where [5] appears, read: dose: 600.0 mg/kg/injection, schedule: Q04DX003 (sc), vehicle: saline.
[6] abbreviates: dose: 18.75 mg/kg/injection, schedule: Q04DX003 (sc), vehicle: saline with Tween-80.
The mark [7] stands for this setting: dose: 37.5 mg/kg/injection, schedule: Q04DX003 (sc), vehicle: saline with Tween-80.
The mark [8] stands for this setting: dose: 75.0 mg/kg/injection, schedule: Q04DX003 (sc), vehicle: saline with Tween-80.
The mark [9] stands for this setting: dose: 150.0 mg/kg/injection, schedule: Q04DX003 (sc), vehicle: saline with Tween-80.
[10] abbreviates: dose: 300.0 mg/kg/injection, schedule: Q04DX003 (sc), vehicle: saline with Tween-80.
The mark [11] stands for this setting: dose: 600.0 mg/kg/injection, schedule: Q04DX003 (sc), vehicle: saline with Tween-80.
Setting [12] is: dose: 600.0 mg/kg/injection, schedule: Q04DX003 (sc), vehicle: Klucel (hydroxypropylcellulose) (HPC).

Take `[I][Hg][CH2]C1OCCOC1[CH2][Hg][I]` (stereo not given): the T/C is 77 % of control under setting [1] and 98 % of control under setting [2].
Take `CCN(CC)c1ccc2cc(-c3nc4ccccc4n3C)c(=O)oc2c1`: the T/C (dose: 75.0 mg/kg/injection, schedule: Q04DX003 (sc), vehicle: Klucel (hydroxypropylcellulose) (HPC)) is 119 % of control; the T/C (dose: 150.0 mg/kg/injection, schedule: Q04DX003 (sc), vehicle: Klucel (hydroxypropylcellulose) (HPC)) was 104 % of control; the T/C under setting [3] was 123 % of control.
Consider `CC1(O)CC23CC(O)C4(O)C(CC(O)C4(C)C)C(C)(O)C2CCC1C3O` (stereo not given), for which, for the setting “dose: 0.25 mg/kg/injection, schedule: Q04DX003 (sc), vehicle: Klucel (hydroxypropylcellulose) (HPC)”, the T/C is 162 % of control.
Consider `c1ccc2c(c1)[As]=c1ccccc1=[As]2` (stereo not given), for which the T/C runs as follows: (dose: 150.0 mg/kg/injection, schedule: Q04DX003 (sc), vehicle: saline) 116 % of control; under setting [4], 118 % of control; under setting [5], 99 % of control.
`CCC[P+](c1ccccc1)(c1ccccc1)c1ccccc1`: the T/C runs as follows: under setting [6], 100 % of control; under setting [7], 73 % of control; under setting [8], 62 % of control; under setting [9], 54 % of control.
Turning to `CC1(C)OCC2OC=CC(=O)C2O1` (stereo not given), the T/C by setting is: under setting [9], 79 % of control; under setting [10], 73 % of control; under setting [11], 112 % of control.
On to `Nc1ccc(C(OC(=O)c2cc3ccccc3c(Cc3c(O)c(C(=O)OC(c4ccc(N)cc4)(c4ccc(N)cc4)c4ccc(N)cc4)cc4ccccc34)c2O)(c2ccc(N)cc2)c2ccc(N)cc2)cc1`, for which the T/C is 97 % of control (dose: 72.0 mg/kg/injection, schedule: Q04DX003 (sc), vehicle: saline with Tween-80); 104 % of control (dose: 144.0 mg/kg/injection, schedule: Q04DX003 (sc), vehicle: saline with Tween-80); 87 % of control (dose: 288.0 mg/kg/injection, schedule: Q04DX003 (sc), vehicle: saline with Tween-80).
In the case of `Cc1c2ccncc2c(C)c2c1[nH]c1ccccc12`, the T/C was 63 % of control (dose: 6.25 mg/kg/injection, schedule: Q01DX010 (sc), vehicle: saline); 81 % of control (dose: 50.0 mg/kg/injection, schedule: Q01DX010 (sc), vehicle: suspension in saline); 85 % of control (dose: 200.0 mg/kg/injection, schedule: Q01DX010 (sc), vehicle: suspension in saline).
For `CN(C)N=Nc1cn[nH]c1C(N)=O`, the T/C (dose: 100.0 mg/kg/injection, schedule: Q04DX003 (sc), vehicle: suspension in saline) is 98 % of control; the T/C (dose: 200.0 mg/kg/injection, schedule: Q04DX003 (sc), vehicle: saline) is 63 % of control; the T/C (dose: 200.0 mg/kg/injection, schedule: Q04DX003 (sc), vehicle: suspension in saline) was 67 % of control; the T/C (dose: 400.0 mg/kg/injection, schedule: Q04DX003 (sc), vehicle: saline) was 49 % of control; the T/C (dose: 400.0 mg/kg/injection, schedule: Q04DX003 (sc), vehicle: suspension in saline) is 31 % of control and 37 % of control; the T/C (dose: 800.0 mg/kg/injection, schedule: Q04DX003 (sc), vehicle: saline) is 13 % of control. In addition, the T/C (dose: 800.0 mg/kg/injection, schedule: Q04DX003 (sc), vehicle: suspension in saline) was 2 % of control and 7 % of control.
`N#CC(OC1OC(COC2OC(CO)C(O)C(O)C2O)C(O)C(O)C1O)c1ccccc1` (stereo not given): the T/C was 67 % of control under setting [4]; 83 % of control under setting [5]; 71 % of control (dose: 1200.0 mg/kg/injection, schedule: Q04DX003 (sc), vehicle: saline); 75 % of control (dose: 2400.0 mg/kg/injection, schedule: Q04DX003 (sc), vehicle: saline).
With `CC(=O)Nc1ccc(S(=O)(=O)CO)cc1`, the T/C is 121 % of control under setting [10] and 85 % of control under setting [11].
Consider `NC(=O)c1[nH]nc(C2OC(CO)C(O)C2O)c1O` (stereo not given), for which the T/C is, setting by setting: (dose: 2.5 mg/kg/injection, schedule: Q04DX003 (sc), vehicle: saline) 111 % of control; (dose: 20.0 mg/kg/injection, schedule: Q04DX003 (sc), vehicle: saline) 68 % of control.
For the compound `CC(C)[NH-].CC(C)[NH-].[Cl][Pt+2][Cl]`, the T/C (dose: 300.0 mg/kg/injection, schedule: Q04DX003 (sc), vehicle: dextrose) was 35 % of control.
Take `O=C(Nc1nncs1)c1ccncc1`: the T/C by setting is: under setting [9], 101 % of control; under setting [11], 109 % of control; (dose: 1200.0 mg/kg/injection, schedule: Q04DX003 (sc), vehicle: saline with Tween-80) 65 % of control.
As for `CC(=O)OC1=NC(C)c2c1cc(OC(C)=O)[nH]c2=O` (stereo not given), the T/C runs as follows: under setting [3], 102 % of control; under setting [12], 91 % of control; under setting [1], 70 % of control.
For `C=C(C)C(=O)OC1C/C(CO)=C\C(O)C/C(C)=C/C2OC(=O)C(=C)C21` (stereo not given), the T/C (dose: 20.0 mg/kg/injection, schedule: Q04DX003 (sc), vehicle: saline + alcohol) was 55 % of control; the T/C (dose: 40.0 mg/kg/injection, schedule: Q04DX003 (sc), vehicle: saline + alcohol) was 106 % of control; the T/C (dose: 80.0 mg/kg/injection, schedule: Q04DX003 (sc), vehicle: saline + alcohol) was 66 % of control.
As to `CC1NC(=O)C(NC(=O)c2cnc3ccccc3n2)COC(=O)C(C(C)C)N(C)C(=O)C2CSSCC(C(=O)N(C)C(C(C)C)C(=O)OCC(NC(=O)c3cnc4ccccc4n3)C(=O)NC(C)C(=O)N2C)N(C)C1=O` (stereo not given) (I: Quinoxaline2carbonyl-SA[NMeC][NMeV] / II: Quinoxaline2carbonyl-SA[NMeC][NMeV]; ester I:1-II:C, I:C-II:1; disulfide I:3-II:3; configuration not given here), the T/C is 63 % of control (dose: 100.0 micrograms/kg/injection, schedule: Q04DX003 (sc), vehicle: Klucel (hydroxypropylcellulose) (HPC)); 62 % of control (dose: 200.0 micrograms/kg/injection, schedule: Q04DX003 (sc), vehicle: Klucel (hydroxypropylcellulose) (HPC)); 73 % of control (dose: 400.0 micrograms/kg/injection, schedule: Q04DX003 (sc), vehicle: Klucel (hydroxypropylcellulose) (HPC)); 46 % of control (dose: 800.0 micrograms/kg/injection, schedule: Q04DX003 (sc), vehicle: Klucel (hydroxypropylcellulose) (HPC)).
Regarding `CC(C)(C)C1CCCCC1`, the T/C was 101 % of control under setting [3], 89 % of control under setting [12], 75 % of control under setting [1] and 65 % of control under setting [2].
Take `COC(=O)C(F)C(Br)C(=O)OC` (stereo not given): the T/C was 52 % of control under setting [6], 49 % of control under setting [7] and 59 % of control under setting [8].
As for `Cc1ccc(N)c(N)c1`, the T/C by setting is: (dose: 200.0 mg/kg/injection, schedule: Q04DX003 (sc), vehicle: saline with Tween-80) 87 % of control; (dose: 800.0 mg/kg/injection, schedule: Q04DX003 (sc), vehicle: saline with Tween-80) 112 % of control.
In the case of `CC1(C)OCC(CO)(Nc2nc(N3CC3)nc(N3CC3)n2)CO1`, the T/C (dose: 2.5 mg/kg/injection, schedule: Q01DX010 (sc), vehicle: saline) was -75 % of control.
With `NC(=O)c1ccc[n+](Cc2c(Cl)cccc2Cl)c1`, the T/C is 92 % of control (dose: 50.0 mg/kg/injection, schedule: Q04DX003 (sc), vehicle: saline) and 100 % of control (dose: 100.0 mg/kg/injection, schedule: Q04DX003 (sc), vehicle: saline).
For `CC(C)CCCCCCCCCCCCC(=O)NCC(=O)NC1C(C)OC(Nc2ncnc3nc[nH]c23)C(O)C1O` (stereo not given), the T/C (dose: 1.0 mg/kg/injection, schedule: Q01DX010 (sc), vehicle: distilled water + Tween-80) was 68 % of control; the T/C (dose: 2.0 mg/kg/injection, schedule: Q01DX010 (sc), vehicle: distilled water + Tween-80) is 75 % of control; the T/C (dose: 4.0 mg/kg/injection, schedule: Q01DX010 (sc), vehicle: distilled water + Tween-80) was 55 % of control; the T/C (dose: 8.0 mg/kg/injection, schedule: Q01DX010 (sc), vehicle: distilled water + Tween-80) was 25 % of control.
Regarding `C/C=C/c1cc2n(c1)C(=O)c1cc(OC3OC(C)C(NC)C(C)(O)C3O)c(C)c(O)c1NC2O` (stereo not given), the T/C reads like this: (dose: 100.0 micrograms/kg/injection, schedule: Q04DX003 (sc), vehicle: saline) 182 % of control; (dose: 200.0 micrograms/kg/injection, schedule: Q04DX003 (sc), vehicle: saline) 22 % of control; (dose: 400.0 micrograms/kg/injection, schedule: Q04DX003 (sc), vehicle: saline) 91 % of control.
